Measured values published in patent US9796711B2, “Substituted pyrazolo[3,4-b]pyridin-6-carboxylic acids and method of use” (AbbVie S.àr.l., priority 2015, dated 2017).

Tests used:
ΔF508-CFTR [1] = target: T1, ΔF508-CFTR (Homo sapiens, UniProt P13569, DEL508-508); experiment: CFTR cell surface levels using HRP-tagged ΔF508-CFTR expressing CFBE cells, intrinsic corrector capacity; assay type: cell-based
T1 construct: host or cells: CFBE41o-, doxycycline-inducible
Method in brief: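 Here the cells express ΔF508-CFTR with horseradish peroxidase inserted in extracellular loop 4, so only rescued channel at the surface gives luminescent signal. Compounds act on their own, 20 h at the reduced temperature of 33 °C; values are percent activity relative to DMSO and a 3 μM corrector.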

ΔF508-CFTR [2] = target: T1, ΔF508-CFTR; experiment: CFTR cell surface levels using HRP-tagged ΔF508-CFTR expressing CFBE cells, in the presence of a co-corrector; assay type: cell-based
Method in brief: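 Cells were seeded with 0.5 μg/mL doxycycline and held 68 h at 37 °C. Test compounds plus 3 μM co-corrector (final 0.1% DMSO) were then added for 20 h at 33 °C. Washed cells received HRP substrate, and luminescence was normalized between DMSO and 3 μM co-corrector controls.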

[3] = HRP-tagged ΔF508-CFTR expressing CFBE cells, intrinsic corrector capacity (no co-corrector), 33° C., 20 hours
[4] = HRP-tagged ΔF508-CFTR expressing CFBE cells, intrinsic corrector capacity (no co-corrector), 33° C., 20 hours, read-out: EC50
[5] = HRP-tagged ΔF508-CFTR expressing CFBE cells, in the presence of 3 μM co-corrector
[6] = HRP-tagged ΔF508-CFTR expressing CFBE cells, in the presence of 3 μM co-corrector, read-out: EC50

T1 sequence (P13569 with tags, fused parts or gaps DEL508-508): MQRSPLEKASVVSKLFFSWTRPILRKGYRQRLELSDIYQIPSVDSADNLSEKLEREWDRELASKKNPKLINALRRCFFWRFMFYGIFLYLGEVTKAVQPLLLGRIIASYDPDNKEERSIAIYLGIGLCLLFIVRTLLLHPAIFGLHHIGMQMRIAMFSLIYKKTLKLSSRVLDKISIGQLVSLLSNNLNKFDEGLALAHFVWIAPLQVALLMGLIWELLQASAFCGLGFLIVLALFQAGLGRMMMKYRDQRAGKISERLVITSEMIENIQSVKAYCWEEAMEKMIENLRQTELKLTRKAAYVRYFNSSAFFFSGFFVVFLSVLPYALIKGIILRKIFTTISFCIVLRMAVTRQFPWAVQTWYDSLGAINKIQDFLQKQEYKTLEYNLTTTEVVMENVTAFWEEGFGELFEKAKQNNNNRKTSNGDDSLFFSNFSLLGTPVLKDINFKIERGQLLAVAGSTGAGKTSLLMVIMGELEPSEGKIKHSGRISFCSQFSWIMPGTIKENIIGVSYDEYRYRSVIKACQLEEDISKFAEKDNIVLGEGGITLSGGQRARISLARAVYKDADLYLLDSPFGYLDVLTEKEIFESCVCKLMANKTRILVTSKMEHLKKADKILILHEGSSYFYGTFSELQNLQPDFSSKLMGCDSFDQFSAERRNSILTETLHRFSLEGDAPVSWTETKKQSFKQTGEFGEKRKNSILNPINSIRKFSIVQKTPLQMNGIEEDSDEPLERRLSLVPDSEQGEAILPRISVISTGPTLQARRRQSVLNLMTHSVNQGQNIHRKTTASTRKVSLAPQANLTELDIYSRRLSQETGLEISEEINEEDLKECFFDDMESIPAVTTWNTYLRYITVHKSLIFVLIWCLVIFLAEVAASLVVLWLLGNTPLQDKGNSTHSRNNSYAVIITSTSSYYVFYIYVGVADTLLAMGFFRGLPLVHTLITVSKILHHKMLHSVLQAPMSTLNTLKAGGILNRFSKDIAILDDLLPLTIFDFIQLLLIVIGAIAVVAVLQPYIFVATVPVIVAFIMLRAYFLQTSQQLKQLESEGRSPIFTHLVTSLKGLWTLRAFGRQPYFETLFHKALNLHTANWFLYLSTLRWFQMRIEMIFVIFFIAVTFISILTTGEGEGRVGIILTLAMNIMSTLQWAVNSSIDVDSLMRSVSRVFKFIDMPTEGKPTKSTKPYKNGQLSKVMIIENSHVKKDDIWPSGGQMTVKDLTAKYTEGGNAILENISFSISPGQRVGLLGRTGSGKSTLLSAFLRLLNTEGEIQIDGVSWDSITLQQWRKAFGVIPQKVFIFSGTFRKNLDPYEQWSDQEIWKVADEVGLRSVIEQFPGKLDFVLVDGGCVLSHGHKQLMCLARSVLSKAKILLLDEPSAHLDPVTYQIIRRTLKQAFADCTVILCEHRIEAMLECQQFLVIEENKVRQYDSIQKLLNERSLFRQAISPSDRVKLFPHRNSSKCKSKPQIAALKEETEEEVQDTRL

SMILES	% Activation (ΔF508-CFTR [1]; [3])	EC50 (ΔF508-CFTR [1]; [4])	% Activation (ΔF508-CFTR [2]; [5])	EC50 (ΔF508-CFTR [2]; [6])	EC50 (ΔF508-CFTR [1])	EC50 (ΔF508-CFTR [2])
COCC1CCN(c2cc(C(=O)O)nc3c2c(C(C)C)nn3CC(C)C)CC1 [compound 548, 4-[4-(methoxymethyl)piperidin-1-yl]-1-(2-methylpropyl)-3-(propan-2-yl)-1H-pyrazolo[3,4-b]pyridine-6-carboxylic acid]	88.93%	2540 nM	306%	3330 nM		
N#CC1CCN(c2ccc(-c3cc(C(=O)O)nc4c3c(OC3CCNC3)nn4-c3ccccc3)cn2)CC1 (stereo not drawn) [compound 550, 4-[6-(4-cyanopiperidin-1-yl)pyridin-3-yl]-1-phenyl-3-[(pyrrolidin-3-yl)oxy]-1H-pyrazolo[3,4-b]pyridine-6-carboxylic acid]	4.775%	> 10000 nM	122.4%	> 10000 nM		
C[C@H]1C[C@H](c2nn(-c3ccccc3)c3nc(C(=O)O)cc(-c4ccc(N5CCC(C#N)CC5)nc4)c32)C1 [compound 551, 4-[6-(4-cyanopiperidin-1-yl)pyridin-3-yl]-3-(trans-3-methylcyclobutyl)-1-phenyl-1H-pyrazolo[3,4-b]pyridine-6-carboxylic acid]	223.1%	370 nM	424.35%	87.2 nM		
CC(C)(C)OC(=O)N1CCC(Oc2nn(-c3ccccc3)c3nc(C(=O)O)cc(-c4ccc(N5CCC(C#N)CC5)nc4)c23)C1 (stereo not drawn) [compound 552, 3-{[1-(tert-butoxycarbonyl)pyrrolidin-3-yl]oxy}-4-[6-(4-cyanopiperidin-1-yl)pyridin-3-yl]-1-phenyl-1H-pyrazolo[3,4-b]pyridine-6-carboxylic acid]	156.1%	370 nM	396.65%	396 nM		
CC(C)(C)OC(=O)N1CCC(Oc2nn(-c3ccccc3)c3nc(C(=O)O)cc(-c4ccc(N5CCC(C#N)CC5)nc4)c23)CC1 [compound 553, 3-{[1-(tert-butoxycarbonyl)piperidin-4-yl]oxy}-4-[6-(4-cyanopiperidin-1-yl)pyridin-3-yl]-1-phenyl-1H-pyrazolo[3,4-b]pyridine-6-carboxylic acid]	189.7%	370 nM	419.05%	119 nM		
CCCOCCN1CCN(c2cc(C(=O)O)nc3c2c(C2CCC2)nn3-c2ccccc2)CC1 [compound 555, 3-cyclobutyl-1-phenyl-4-[4-(2-propoxyethyl)piperazin-1-yl]-1H-pyrazolo[3,4-b]pyridine-6-carboxylic acid]	152%	331 nM	310.65%	169 nM		
O=C(O)c1cc(N2CCOC(CN3CCCCC3)C2)c2c(C3CCC3)nn(-c3ccccc3)c2n1 (stereo not drawn) [compound 556, 3-cyclobutyl-1-phenyl-4-{2-[(piperidin-1-yl)methyl]morpholin-4-yl}-1H-pyrazolo[3,4-b]pyridine-6-carboxylic acid]	140.1%	838 nM	324%	682 nM		
O=C(O)c1cc(N2CCN(CCCN3CCOCC3)CC2)c2c(C3CCC3)nn(-c3ccccc3)c2n1 [compound 558, 3-cyclobutyl-4-{4-[3-(morpholin-4-yl)propyl]piperazin-1-yl}-1-phenyl-1H-pyrazolo[3,4-b]pyridine-6-carboxylic acid]	121.3%	1370 nM	322.5%	778 nM		
N#CCCN1CCN(c2cc(C(=O)O)nc3c2c(C2CCC2)nn3-c2ccccc2)CC1 [compound 561, 4-[4-(2-cyanoethyl)piperazin-1-yl]-3-cyclobutyl-1-phenyl-1H-pyrazolo[3,4-b]pyridine-6-carboxylic acid]	174.8%	1590 nM	348%	427 nM		
CN(C)CC1CN(c2cc(C(=O)O)nc3c2c(C2CCC2)nn3-c2ccccc2)CCO1 (stereo not drawn) [compound 562, 3-cyclobutyl-4-{2-[(dimethylamino)methyl]morpholin-4-yl}-1-phenyl-1H-pyrazolo[3,4-b]pyridine-6-carboxylic acid]	154.7%	1770 nM	347%	921 nM		
CCOCCN1CCN(c2cc(C(=O)O)nc3c2c(C2CCC2)nn3-c2ccccc2)CC1 [compound 566, 3-cyclobutyl-4-[4-(2-ethoxyethyl)piperazin-1-yl]-1-phenyl-1H-pyrazolo[3,4-b]pyridine-6-carboxylic acid]	150.5%	388 nM	365.3%	407 nM		
COCCN1CCN(c2cc(C(=O)O)nc3c2c(C2CCC2)nn3-c2ccccc2)CC1 [compound 571, 3-cyclobutyl-4-[4-(2-methoxyethyl)piperazin-1-yl]-1-phenyl-1H-pyrazolo[3,4-b]pyridine-6-carboxylic acid]	189.6%		334.05%		812 nM	328 nM
CC(C)OC1CN(c2cc(C(=O)O)nc3c2c(C2CCC2)nn3-c2ccccc2)C1 [compound 573, 3-cyclobutyl-1-phenyl-4-{3-[(propan-2-yl)oxy]azetidin-1-yl}-1H-pyrazolo[3,4-b]pyridine-6-carboxylic acid]	149.7%	974 nM	376%	299 nM		
O=C(O)c1cc(N2CC[C@@H](N3CCOCC3)C2)c2c(C3CCC3)nn(-c3ccccc3)c2n1 [compound 577, 3-cyclobutyl-4-[(3R)-3-(morpholin-4-yl)pyrrolidin-1-yl]-1-phenyl-1H-pyrazolo[3,4-b]pyridine-6-carboxylic acid]	108%	3030 nM	300.47%	1150 nM		
O=C(O)c1cc(OC2CCC(F)(F)CC2)c2c(C3CCC3)nn(-c3ccccc3)c2n1 [compound 578, 3-cyclobutyl-4-[(4,4-difluorocyclohexyl)oxy]-1-phenyl-1H-pyrazolo[3,4-b]pyridine-6-carboxylic acid]	118.2%	334 nM	301.55%	224 nM		
O=C(O)c1cc(OC2CCOCC2)c2c(C3CCC3)nn(-c3ccccc3)c2n1 [compound 579, 3-cyclobutyl-4-[(oxan-4-yl)oxy]-1-phenyl-1H-pyrazolo[3,4-b]pyridine-6-carboxylic acid]	97.37%	238 nM	263.5%	267 nM		
CO[C@H]1CCCC[C@@H]1Oc1cc(C(=O)O)nc2c1c(C1CCC1)nn2-c1ccccc1 [compound 580, 3-cyclobutyl-4-{[(1S,2S)-2-methoxycyclohexyl]oxy}-1-phenyl-1H-pyrazolo[3,4-b]pyridine-6-carboxylic acid]	88.82%	333 nM	288%	312 nM		
CCC1(COc2cc(C(=O)O)nc3c2c(C2CCC2)nn3-c2ccccc2)COC1 [compound 581, 3-cyclobutyl-4-[(3-ethyloxetan-3-yl)methoxy]-1-phenyl-1H-pyrazolo[3,4-b]pyridine-6-carboxylic acid]	146%	250 nM	377.8%	203 nM		
